Assay results reported in ChEMBL document CHEMBL1201862, “PubChem BioAssay data set” (2004).
Calls of active or inactive are those of the source.

Key:
[1] = biological target: Sphingosine 1-phosphate receptor 2 (Homo sapiens, UniProt O95136); experiment: Dose Response Cell Based Assay for Antagonists of the S1P2 Receptor. [Related pubchem assays: 856, 736 ]; format: functional
[2] = Luminescence Cell-Based Dose Confirmation HTS to Identify Inhibitors of Polyadenylation.; format: functional
[3] = biological target: Caspase-6 (Homo sapiens, UniProt P55212); experiment: inhibition of CASP6 peptide cleavage – biochemical, VEID-R110 fluorescence, cherry-pick, dose response (AID 720632)
[4] = biological target: T1, Oxysterols receptor LXR-beta (Homo sapiens, UniProt P55055); experiment: LXR agonists, Gal4 luciferase reporter, dose response, counter-screen for ssDAF-12 agonist project, cell-based, luminescence, HEK293, S. stercoralis campaign (AID 720737); format: functional; settings: read-out: IC50 (the source's name)
T1 sequence (P55055 whole entry): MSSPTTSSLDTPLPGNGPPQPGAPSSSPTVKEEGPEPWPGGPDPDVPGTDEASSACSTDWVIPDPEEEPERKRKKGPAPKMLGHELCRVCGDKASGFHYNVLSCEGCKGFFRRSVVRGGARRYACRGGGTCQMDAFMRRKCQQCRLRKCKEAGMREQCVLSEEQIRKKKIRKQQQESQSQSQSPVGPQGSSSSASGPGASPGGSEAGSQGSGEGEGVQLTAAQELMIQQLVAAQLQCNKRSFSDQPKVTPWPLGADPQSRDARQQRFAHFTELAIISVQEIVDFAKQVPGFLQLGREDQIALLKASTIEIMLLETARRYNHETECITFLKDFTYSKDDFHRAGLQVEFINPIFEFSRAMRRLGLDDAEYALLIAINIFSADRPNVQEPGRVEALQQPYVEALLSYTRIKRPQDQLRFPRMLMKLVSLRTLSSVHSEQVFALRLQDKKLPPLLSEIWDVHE

[5] = Luminescence-based cell-based high throughput dose response assay to identify activators of the DAF-12 from the parasite S. stercoralis (ssDAF-12).; format: functional
[6] = IGROV1 cell killing – plate reader, dry powder samples, PAX8 inhibitor project, dose response (AID 743043); format: functional, cell-based; settings: IGROV-1
[7] = biological target: Paired box protein Pax-8 (Homo sapiens, UniProt Q06710); experiment: PAX8 transcriptional activity inhibition in RMG-I – RMG-I cells, luciferase, cherry-pick, dose response (AID 687027); format: functional, cell-based;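 note: luciferase reporter driven by Pax8 target thyroperoxidase promoter measured by SteadyGlo luminescence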
[8] = OVCAR-3 cell viability loss – plate reader, dry powder samples, PAX8 inhibitor project, dose response (AID 743044); format: functional, cell-based
[9] = rise of 2N DNA cells, HeLa – IC50, dose response (AID 1117349); format: functional, cell-based
[10] = rise of 4N DNA cells, HeLa – IC50, dose response (AID 1117351); format: functional, cell-based
[11] = growth inhibition of yeast DHODH-expressing 3D7 parasites – SYBR Green, dry powder samples, dose response (AID 1159570); format: functional, cell-based;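 note: parasite growth measured after 72 hours of compound exposure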
[12] = growth inhibition of PfATP4-mutant resistant parasites – NITD609-resistant line, SYBR Green, dry powder, dose response (AID 1159571); format: functional, cell-based;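 note: parasites synchronized at ring stage by sorbitol before testing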
[13] = P. falciparum Dd2 growth inhibitors, dose response, SYBR Green, cherry-picked samples (AID 1159567); format: functional, cell-based
[14] = toxicity to human hepatoma HepG2 cells – cell-based, cherry-picked samples, cytotoxicity control, dose response (AID 1159577); format: functional
[15] = toxicity to human HepG2 hepatoma cells – cell-based, plate reader, dry powder samples, cytotoxicity control, dose response (AID 1159569); format: functional;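 note: inhibitor potency with signal falling toward the positive control level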
[16] = Dd2 malaria parasite growth inhibition potency – SYBR Green, dry powder samples, dose response (AID 1159566); format: functional, cell-based;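 note: potency for growth inhibition with lower SYBR green DNA signal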
[17] = cytotoxicity toward Colo320 cells – cell-based, CellTiter-Glo luminescence, IC50, dose response (AID 1117334); format: functional; settings: COLO 320
[18] = cytotoxicity toward HCT116 cells – cell-based, CellTiter-Glo luminescence, IC50, dose response (AID 1117332); format: functional; settings: HCT-116
[19] = SNU-C1 cell viability reduction, dose response, CellTiter-Glo luminescence (AID 1117323); format: functional, cell-based
[20] = Reduced DLD-1 viability, concentration-response, CellTiter-Glo luminescence (AID 1117352); format: functional
[21] = RKO cell viability reduction, dose response, CellTiter-Glo luminescence (AID 1117322); format: functional
[22] = CellTiter-Glo luminescence survival assay, SW480 colon tumor line, concentration-response curve, half-maximal inhibitory concentration (AID 1117338); format: functional
[23] = HCT116 cell viability decrease, GSK3B pretreatment – CellTiter-Glo, IC50, dose response (AID 1117339); format: functional; settings: HCT-116
[24] = cytotoxicity toward HT-29 cells – cell-based, CellTiter-Glo luminescence, IC50, dose response (AID 1117330); format: functional
[25] = test system: SN12K1; experiment: cells; format: functional; settings: Homo sapiens
[26] = test system: P388/ADR; experiment: cells; format: functional; settings: Mus musculus
[27] = test system: P388; experiment: cells; format: functional; settings: Mus musculus

Chain of Paired box protein Pax-8 (Q06710 whole entry): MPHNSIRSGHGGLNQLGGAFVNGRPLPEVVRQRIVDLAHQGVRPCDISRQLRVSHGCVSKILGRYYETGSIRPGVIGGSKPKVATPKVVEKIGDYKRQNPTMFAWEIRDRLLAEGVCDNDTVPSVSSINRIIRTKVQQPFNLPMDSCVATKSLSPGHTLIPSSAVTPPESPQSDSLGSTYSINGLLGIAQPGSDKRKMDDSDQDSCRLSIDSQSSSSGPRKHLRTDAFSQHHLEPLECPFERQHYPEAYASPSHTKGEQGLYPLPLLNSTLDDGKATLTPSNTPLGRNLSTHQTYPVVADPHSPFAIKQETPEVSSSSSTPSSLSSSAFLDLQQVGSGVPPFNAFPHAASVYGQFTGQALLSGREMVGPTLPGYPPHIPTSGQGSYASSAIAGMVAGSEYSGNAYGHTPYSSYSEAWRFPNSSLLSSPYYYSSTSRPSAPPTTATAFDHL
Chain of Sphingosine 1-phosphate receptor 2 (O95136 whole entry): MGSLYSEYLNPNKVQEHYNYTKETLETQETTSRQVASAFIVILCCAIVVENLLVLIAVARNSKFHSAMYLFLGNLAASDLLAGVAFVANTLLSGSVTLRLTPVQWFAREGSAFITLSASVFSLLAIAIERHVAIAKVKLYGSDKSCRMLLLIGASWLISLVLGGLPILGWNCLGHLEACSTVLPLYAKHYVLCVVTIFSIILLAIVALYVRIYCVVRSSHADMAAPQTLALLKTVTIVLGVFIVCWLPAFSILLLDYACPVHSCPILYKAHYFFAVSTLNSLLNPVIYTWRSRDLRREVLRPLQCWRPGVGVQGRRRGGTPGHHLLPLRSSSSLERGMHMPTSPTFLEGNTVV
Chain of Caspase-6 (P55212 24-179 limits assumed): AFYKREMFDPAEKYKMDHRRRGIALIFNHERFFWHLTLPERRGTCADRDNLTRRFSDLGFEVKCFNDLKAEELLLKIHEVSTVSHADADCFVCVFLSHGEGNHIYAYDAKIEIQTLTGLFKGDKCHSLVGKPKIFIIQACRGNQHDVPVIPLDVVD
Chain of Caspase-6 (P55212 194-293 limits assumed): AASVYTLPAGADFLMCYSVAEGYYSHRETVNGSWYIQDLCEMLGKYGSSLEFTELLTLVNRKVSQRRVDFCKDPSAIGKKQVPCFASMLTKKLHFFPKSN

O=C(c1sc2cc(C(F)(F)F)cnc2c1-c1ccccc1)N1CCOCC1
IC50 [1]: > 30 µM (not active)

Cc1nc2ccc(NC(=O)Cc3ccc4c(c3)OCCO4)cc2s1
EC50 [2]: > 120 µM (not active)

O=Cc1ccc(Oc2nc(Cl)ncc2F)cc1
AC50 [3]: 9.13 µM (active)

O=C(Cc1c[nH]c2ccccc12)NNCc1ccc(N(CCCl)CCCl)cc1
EC50 [4]: > 67.5 µM (inactive) | IC50 [5]: > 67.5 µM (inactive)

CC(C)N(C)c1ncnc2c1ncn2[C@H]1CN(Cc2cccnc2)C[C@@H](CO)O1
EC50 [4]: > 67.5 µM (inactive) | IC50 [5]: > 67.5 µM (inactive)

C[C@@H]1CCCCO[C@H](CN(C)Cc2ccc(C(F)(F)F)cc2)[C@@H](C)CN([C@@H](C)CO)C(=O)c2cc(NC(=O)Cc3ccccc3)ccc2O1
AC50 [6]: 64.6 µM (active) | AC50 [7]: 9.25 µM (active) | AC50 [8]: 35.2 µM (active)

CCCCCCCCCCOCC(O)CN (stereo not given)
IC50 [9]: > 10 µM (inactive) | IC50 [10]: > 10 µM (inactive)

COc1ccccc1NC(=O)N1CCCCN2[C@H](CO)[C@H](c3ccc(C#CC4CC4)cc3)[C@H]2C1
AC50 [11]: 1.74 µM (active) | AC50 [12]: 1.74 µM (active) | AC50 [13]: 2.69 µM (active) | AC50 [14]: 20.3 µM (active) | AC50 [15]: 18.4 µM (active) | AC50 [16]: 1.2 µM (active)

C/C=C/c1ccc([C@H]2[C@@H](CO)N(c3nc(C)c(C)s3)[C@@H]2CNCC(C)C)cc1
AC50 [11]: 0.915 µM (active) | AC50 [12]: 0.473 µM (active) | AC50 [13]: 0.861 µM (active) | AC50 [14]: > 39 µM (inactive) | AC50 [15]: 44.1 µM (active) | AC50 [16]: 0.227 µM (active)

Cc1cccc(C)c1NC(=O)CC12CCCN1CCC2 [PILSICAINIDE]
IC50 [17]: > 20 µM (inactive) | IC50 [18]: > 20 µM (inactive) | IC50 [19]: > 20 µM (inactive) | IC50 [20]: > 20 µM (inactive) | IC50 [21]: > 20 µM (inactive) | IC50 [22]: > 20 µM (inactive) | IC50 [23]: > 20 µM (inactive) | IC50 [24]: > 20 µM (inactive)

OC[C@H]1O[C@@H](n2cnc3c(S)ncnc32)[C@H](O)[C@@H]1O [THIOINOSINE]
IC50 [17]: 1.06 µM (active) | IC50 [18]: 0.0286 µM (active) | IC50 [19]: 2.19 µM (active) | GI50 [25]: 1780 µM (inactive) | IC50 [20]: 0.063 µM (active) | GI50 [26]: 1140 µM (inactive) | IC50 [21]: 0.0144 µM (active) | IC50 [9]: > 10 µM (inactive) | IC50 [10]: > 10 µM (inactive) | GI50 [27]: 1240 µM (inactive) | IC50 [22]: 0.0287 µM (active) | IC50 [23]: 0.504 µM (active) | IC50 [24]: 0.118 µM (active)
